Source: ChEMBL document CHEMBL1201862, “PubChem BioAssay data set” (2004)
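Protocol summary: plate cells (96-well), add compound at 5 concentrations, incubate 48 h, interpolate endpoints linearly. GI50: concentration for 50% inhibition of growth.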 Activity calls are given as the source filed them. No stated cut-off is given here; in the data, active = GI50 up to about 1.1 µM and inactive = higher.

How the values were obtained:
Assay in all cases: NCI tumour cell line growth inhibition, 48 h
A549 = test system: A549
KM12 = test system: KM12
HL-60 = test system: HL-60
NCI-H460 = test system: NCI-H460
M14 = test system: M14
UACC-62 = test system: UACC-62
SNB-75 = test system: SNB-75
SK-OV-3 = test system: SK-OV-3
PC-3 = test system: PC-3
MDA-MB-231 = test system: MDA-MB-231
NCI/ADR-RES = test system: NCI/ADR-RES
MDA-MB-435 = test system: MDA-MB-435
MCF7 = test system: MCF7
CCRF-CEM = test system: CCRF-CEM
RXF 393 = test system: RXF 393
HCT-15 = test system: HCT-15
SNB-19 = test system: SNB-19
ACHN = test system: ACHN
T47D = test system: T47D

Compound | GI50 (A549) | GI50 (KM12) | GI50 (HL-60) | GI50 (NCI-H460) | GI50 (M14) | GI50 (UACC-62) | GI50 (SNB-75) | GI50 (SK-OV-3) | GI50 (PC-3) | GI50 (MDA-MB-231) | GI50 (NCI/ADR-RES) | GI50 (MDA-MB-435) | GI50 (MCF7) | GI50 (CCRF-CEM) | GI50 (RXF 393) | GI50 (HCT-15) [µM] | GI50 (SNB-19) | GI50 (ACHN) | GI50 (T47D)
CNC(=O)C(C)NC(=O)C(Cc1ccccc1)NC(=O)OC(C)(C)C (configuration not stated) | > 100 µM (inactive) | > 100 µM (inactive) | > 100 µM (inactive) | > 100 µM (inactive) | > 100 µM (inactive) | > 100 µM (inactive) | > 100 µM (inactive) | > 100 µM (inactive) | > 100 µM (inactive) | > 100 µM (inactive) | > 100 µM (inactive) | > 100 µM (inactive) | > 100 µM (inactive) | > 100 µM (inactive) | > 100 µM (inactive) | > 100 | > 100 µM (inactive) | > 100 µM (inactive) | > 100 µM (inactive)
NC1=NCC(CN2CCCC2)O1 (configuration not stated) | > 100 µM (inactive) | > 100 µM (inactive) | > 100 µM (inactive) | > 100 µM (inactive) | > 100 µM (inactive) | > 100 µM (inactive) | > 100 µM (inactive) | > 100 µM (inactive) | > 100 µM (inactive) | > 100 µM (inactive) | > 100 µM (inactive) | > 100 µM (inactive) | > 100 µM (inactive) | > 100 µM (inactive) | > 100 µM (inactive) | > 100 | > 100 µM (inactive) | > 100 µM (inactive) | > 100 µM (inactive)
C=C(C)[C@@H]1CCC2=C[C@H](OC2=O)[C@@]2(C)C[C@@H]2C2=CC(C)=C(O2)[C@H]1O | 39 µM (inactive) | 25.5 µM (inactive) | 46.6 µM (inactive) | 54.3 µM (inactive) | 68.4 µM (inactive) | 41.1 µM (inactive) | 35.5 µM (inactive) | 54.5 µM (inactive) | 33.9 µM (inactive) | 28.2 µM (inactive) | 23.6 µM (inactive) | 30.6 µM (inactive) | 53.2 µM (inactive) | 37.4 µM (inactive) | 38.5 µM (inactive) | 36.4 | > 75 µM (inactive) | 36.9 µM (inactive) | 28.1 µM (inactive)
CC1SCc2nc3ccccc3n21 (configuration not stated) | > 100 µM (inactive) | > 100 µM (inactive) | > 100 µM (inactive) | > 100 µM (inactive) | > 100 µM (inactive) | > 100 µM (inactive) | 0.284 µM (active) | > 100 µM (inactive) | > 100 µM (inactive) | > 100 µM (inactive) | > 100 µM (inactive) | > 100 µM (inactive) | > 100 µM (inactive) | > 100 µM (inactive) | > 100 µM (inactive) | > 100 | > 100 µM (inactive) | > 100 µM (inactive) | > 100 µM (inactive)
CC1=[N+](C)CCN1C | > 100 µM (inactive) | > 100 µM (inactive) | > 100 µM (inactive) | > 100 µM (inactive) | > 100 µM (inactive) | – | > 100 µM (inactive) | > 100 µM (inactive) | > 100 µM (inactive) | > 100 µM (inactive) | > 100 µM (inactive) | > 100 µM (inactive) | > 100 µM (inactive) | > 100 µM (inactive) | > 100 µM (inactive) | > 100 | > 100 µM (inactive) | > 100 µM (inactive) | > 100 µM (inactive)
CC(C)NC(=O)OCc1c(COC(=O)NC(C)C)n(C)c2c1ccc1ccccc12 | 9.98 µM (inactive) | 4.51 µM (inactive) | 2.86 µM (inactive) | 2.53 µM (inactive) | 1.63 µM (inactive) | 1.44 µM (inactive) | 1.83 µM (inactive) | 9.82 µM (inactive) | 4.43 µM (inactive) | 1.57 µM (inactive) | 2.29 µM (inactive) | 1.52 µM (inactive) | 0.57 µM (active) | 0.112 µM (active) | 1.25 µM (inactive) | 1.54 | 1.74 µM (inactive) | 1.48 µM (inactive) | 0.247 µM (active)
O=c1nc2n3c4c(cccc4nc-2c(=O)[nH]1)CCC3 | > 100 µM (inactive) | 37.4 µM (inactive) | 70.8 µM (inactive) | > 100 µM (inactive) | > 100 µM (inactive) | > 100 µM (inactive) | > 100 µM (inactive) | > 100 µM (inactive) | > 100 µM (inactive) | > 100 µM (inactive) | > 100 µM (inactive) | 61.9 µM (inactive) | 58.3 µM (inactive) | > 100 µM (inactive) | > 100 µM (inactive) | > 100 | > 100 µM (inactive) | > 100 µM (inactive) | 60.7 µM (inactive)
